Measured values published in patent US4015974A, “Amido phosphorothiolates” (priority 1972, dated 1977).

Legend:
Assay type in all cases: in vivo
radish = assay: Pre-emergence application, herbicidal effect on radish (Table 1); design: key: 0: not damaged; 5: completely killed; details: 20 days after application, score 0-5
How it was run: (§1)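 Pre-emergence soil treatment: seeds sown in pots of about 10 cm and covered with soil, then compounds applied as wettable powder diluted in water. Plants grown in a greenhouse; damage scored 20 days after application from 0 (not damaged) to 5 (completely killed).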

[1] = tested on: redroot pigweed (Amaranthus retroflexus); assay: Pre-emergence application, herbicidal effect on redroot pigweed (Table 1); design: key: 0: not damaged; 5: completely killed; details: 20 days after application, score 0-5
How it was run: as §1

[2] = tested on: barnyard grass (Echinochloa crus-galli); assay: Pre-emergence application, herbicidal effect on barnyard grass (Table 1); design: key: 0: not damaged; 5: completely killed; details: 20 days after application, score 0-5
How it was run: as §1

[3] = tested on: barnyard grass (Echinochloa crus-galli); assay: Water application, herbicidal effect on barnyard grass (Table 2); design: key: 0: not damaged; 5: completely killed; details: 25 days, score 0-5
How it was run: (§2)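 Flooded paddy-soil pots with 3-leaf-stage transplanted rice and sown barnyard grass; wettable-powder compounds applied to soil under water. Herbicidal effect and rice phytotoxicity, also on spontaneously germinated broad-leaved weeds, scored 0–5 at 25 days after application.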

[4] = tested on: common lambsquarter (Chenopodium album); assay: Pre-emergence application, herbicidal effect on common lambsquarter (Table 1); design: key: 0: not damaged; 5: completely killed; details: 20 days after application, score 0-5
How it was run: as §1

[5] = tested on: broad-leaved weeds, e.g., monochoria, false pimpernel and toothcup; assay: Water application, herbicidal effect on broad-leaved weeds (Table 2); design: key: 0: not damaged; 5: completely killed; details: 25 days, score 0-5
How it was run: as §2

[6] = tested on: large crabgrass (Digitaria sanguinalis); assay: Pre-emergence application, herbicidal effect on large crabgrass (Table 1); design: key: 0: not damaged; 5: completely killed; details: 20 days after application, score 0-5
How it was run: as §1

[7] = tested on: common purslane (Portulaca oleracea); assay: Pre-emergence application, herbicidal effect on common purslane (Table 1); design: key: 0: not damaged; 5: completely killed; details: 20 days after application, score 0-5
How it was run: as §1

rice = assay: Water application, phytotoxicity on rice (Table 2); design: key: 0: no effect; 1: very slightly affected; 2: slightly affected; 3: moderately affected; 4: considerably affected; 5: completely killed; details: 25 days, score 0-5
How it was run: as §2

SMILES | Herbicidal effect, radish (radish; 10 g./a.) | Herbicidal effect, radish (radish; 20 g./a.) | Herbicidal effect, radish (radish; 40 g./a.) | Herbicidal effect, redroot pigweed ([1]; 10 g./a.) | Herbicidal effect, redroot pigweed ([1]; 20 g./a.) | Herbicidal effect, redroot pigweed ([1]; 40 g./a.) | Herbicidal effect, barnyard grass ([2]; 10 g./a.) | Herbicidal effect, barnyard grass ([2]; 20 g./a.) | Herbicidal effect, barnyard grass ([2]; 40 g./a.) | Herbicidal effects, barnyard grass ([3]; 10 g/a) | Herbicidal effects, barnyard grass ([3]; 20 g/a) | Herbicidal effects, barnyard grass ([3]; 40 g/a) | Herbicidal effect, common lambsquarter ([4]; 10 g./a.) | Herbicidal effect, common lambsquarter ([4]; 20 g./a.) | Herbicidal effect, common lambsquarter ([4]; 40 g./a.) | Herbicidal effects, broad-leaved weeds ([5]; 10 g/a) | Herbicidal effects, broad-leaved weeds ([5]; 20 g/a) | Herbicidal effects, broad-leaved weeds ([5]; 40 g/a) | Herbicidal effect, large crabgrass ([6]; 10 g./a.) | Herbicidal effect, large crabgrass ([6]; 20 g./a.) | also measured
CCOP(=O)(SCC(=O)N1CCCCC1CC)SCC(C)C (stereo not drawn) [Compound 77] | 0 | 0 | 0 | 5 | 5 | 5 | 5 | 5 | 5 | 5 | 5 | 5 | 5 | 5 | 5 | 5 | 5 | 5 | 5 | 5 | Herbicidal effect, large crabgrass ([6]; 40 g./a.): 5; Herbicidal effect, common purslane ([7]; 10 g./a.): 5; Herbicidal effect, common purslane ([7]; 20 g./a.): 5; Herbicidal effect, common purslane ([7]; 40 g./a.): 5; Phytotoxicity on rice (rice; 10 g/a): 0; Phytotoxicity on rice (rice; 20 g/a): 0; Phytotoxicity on rice (rice; 40 g/a): 1
CCCCCSP(=O)(OCC)SCC(=O)N1CCCCC1CC (stereo not drawn) [Compound 78] | 0 | 0 | 0 | 4 | 4 | 5 | 5 | 5 | 5 | 5 | 5 | 5 | 3 | 4 | 5 | 5 | 5 | 5 | 5 | 5 | Herbicidal effect, large crabgrass ([6]; 40 g./a.): 5; Herbicidal effect, common purslane ([7]; 10 g./a.): 4; Herbicidal effect, common purslane ([7]; 20 g./a.): 4; Herbicidal effect, common purslane ([7]; 40 g./a.): 5; Phytotoxicity on rice (rice; 10 g/a): 0; Phytotoxicity on rice (rice; 20 g/a): 0; Phytotoxicity on rice (rice; 40 g/a): 0
CCOP(=O)(SCCC(C)C)SCC(=O)N1CCCCC1CC (stereo not drawn) [Compound 79] | 0 | 0 | 1 | 4 | 5 | 5 | 5 | 5 | 5 | 5 | 5 | 5 | 5 | 5 | 5 | 5 | 5 | 5 | 5 | 5 | Herbicidal effect, large crabgrass ([6]; 40 g./a.): 5; Herbicidal effect, common purslane ([7]; 10 g./a.): 5; Herbicidal effect, common purslane ([7]; 20 g./a.): 5; Herbicidal effect, common purslane ([7]; 40 g./a.): 5; Phytotoxicity on rice (rice; 10 g/a): 0; Phytotoxicity on rice (rice; 20 g/a): 0; Phytotoxicity on rice (rice; 40 g/a): 1
C=C(C)CSP(=O)(OCC)SCC(=O)N1CCCCC1CC (stereo not drawn) [Compound 81] | 0 | 0 | 1 | 5 | 5 | 5 | 5 | 5 | 5 | 5 | 5 | 5 | 5 | 5 | 5 | 5 | 5 | 5 | 5 | 5 | Herbicidal effect, large crabgrass ([6]; 40 g./a.): 5; Herbicidal effect, common purslane ([7]; 10 g./a.): 5; Herbicidal effect, common purslane ([7]; 20 g./a.): 5; Herbicidal effect, common purslane ([7]; 40 g./a.): 5; Phytotoxicity on rice (rice; 10 g/a): 0; Phytotoxicity on rice (rice; 20 g/a): 0; Phytotoxicity on rice (rice; 40 g/a): 1
C=C(Cl)CSP(=O)(OCC)SCC(=O)N1CCCCC1CC (stereo not drawn) [Compound 82] | 0 | 0 | 1 | 4 | 4 | 5 | 5 | 5 | 5 | 5 | 5 | 5 | 4 | 4 | 5 | 5 | 5 | 5 | 5 | 5 | Herbicidal effect, large crabgrass ([6]; 40 g./a.): 5; Herbicidal effect, common purslane ([7]; 10 g./a.): 3; Herbicidal effect, common purslane ([7]; 20 g./a.): 4; Herbicidal effect, common purslane ([7]; 40 g./a.): 5; Phytotoxicity on rice (rice; 10 g/a): 0; Phytotoxicity on rice (rice; 20 g/a): 0; Phytotoxicity on rice (rice; 40 g/a): 2
CCCOP(=O)(SC)SCC(=O)N1CCCCC1CC (stereo not drawn) [Compound 83] | 0 | 1 | 2 | 5 | 5 | 5 | 5 | 5 | 5 | 5 | 5 | 5 | 5 | 5 | 5 | 5 | 5 | 5 | 5 | 5 | Herbicidal effect, large crabgrass ([6]; 40 g./a.): 5; Herbicidal effect, common purslane ([7]; 10 g./a.): 5; Herbicidal effect, common purslane ([7]; 20 g./a.): 5; Herbicidal effect, common purslane ([7]; 40 g./a.): 5; Phytotoxicity on rice (rice; 10 g/a): 0; Phytotoxicity on rice (rice; 20 g/a): 0; Phytotoxicity on rice (rice; 40 g/a): 0
CCCOP(=O)(SCC)SCC(=O)N1CCCCC1CC (stereo not drawn) [Compound 84] | 0 | 1 | 2 | 4 | 5 | 5 | 5 | 5 | 5 | 5 | 5 | 5 | 4 | 5 | 5 | 5 | 5 | 5 | 5 | 5 | Herbicidal effect, large crabgrass ([6]; 40 g./a.): 5; Herbicidal effect, common purslane ([7]; 10 g./a.): 5; Herbicidal effect, common purslane ([7]; 20 g./a.): 5; Herbicidal effect, common purslane ([7]; 40 g./a.): 5; Phytotoxicity on rice (rice; 10 g/a): 0; Phytotoxicity on rice (rice; 20 g/a): 0; Phytotoxicity on rice (rice; 40 g/a): 2
CCCOP(=O)(SCCC)SCC(=O)N1CCCCC1CC (stereo not drawn) [Compound 85] | 0 | 0 | 0 | 5 | 5 | 5 | 5 | 5 | 5 | 5 | 5 | 5 | 5 | 5 | 5 | 5 | 5 | 5 | 5 | 5 | Herbicidal effect, large crabgrass ([6]; 40 g./a.): 5; Herbicidal effect, common purslane ([7]; 10 g./a.): 5; Herbicidal effect, common purslane ([7]; 20 g./a.): 5; Herbicidal effect, common purslane ([7]; 40 g./a.): 5; Phytotoxicity on rice (rice; 10 g/a): 0; Phytotoxicity on rice (rice; 20 g/a): 0; Phytotoxicity on rice (rice; 40 g/a): 0
